Earlier results on two molecules are cited in patent publication US20080090885A1 (priority 2006, published 2008).

Structures are written as SMILES.

One may read the half-life as how long it takes for the measured level to halve.

The conditions of data set [1]: for half-life: in vivo.
The next data set concerns the target T1, AT1 receptor (Homo sapiens, UniProt P30556).
T1 sequence (P30556 1-359): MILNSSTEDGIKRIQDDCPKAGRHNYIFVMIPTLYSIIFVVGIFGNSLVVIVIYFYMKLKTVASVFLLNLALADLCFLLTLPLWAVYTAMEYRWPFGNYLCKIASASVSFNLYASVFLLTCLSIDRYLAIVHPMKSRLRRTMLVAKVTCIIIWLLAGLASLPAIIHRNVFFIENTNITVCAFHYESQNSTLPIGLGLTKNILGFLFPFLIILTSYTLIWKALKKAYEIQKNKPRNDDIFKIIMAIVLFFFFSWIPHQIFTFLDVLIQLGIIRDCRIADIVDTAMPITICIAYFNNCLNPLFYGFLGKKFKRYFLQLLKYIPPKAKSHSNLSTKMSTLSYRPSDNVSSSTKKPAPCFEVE

On to `CCCCc1nc(Cl)c(C(=O)O)n1Cc1ccc(-c2ccccc2-c2nn[nH]n2)cc1` [EXP-3174, losartan 5-carboxylic acid], for which, in data set [1], the half-life was 6 to 9 h. Moreover, the “type of AT1 receptor antagonism” value on AT1 receptor is listed as “non-competitive AT1 receptor antagonist”.

Turning to `CCCCc1nc(Cl)c(CO)n1Cc1ccc(-c2ccccc2-c2nn[nH]n2)cc1` [Losartan], the half-life entry in data set [1] is “about 2 hours”. Besides, in data set [1] (oral), the oral bioavailability result is “about 33%” and the “peak plasma levels (time to peak)” value is 1 h. At AT1 receptor, the “type of AT1 receptor antagonism” value was “potent, competitive AT1 receptor antagonist”.
